Literature values as cited in paper PMC8065136, “Elevated expression of the adhesion GPCR ADGRL4/ELTD1 promotes endothelial sprouting angiogenesis without activating canonical GPCR signalling” (Scientific Reports, 2021).

System: GPR97
Description: Another possible explanation for the lack of detectable signalling pathways is that other means of activation need to be employed to activate the receptor. Among them mechanical forces or incubation of the full length receptor with a ligand that has not yet been identified. […] Examples include beclomethasone dipropionate on GPR97[45] or Gedunin- and Khivorin-derivatives on GPR56 and GPR114[46]. It is possible that endogenous small molecules could activate ADGRL4/ELTD1 irrespective of the existence of a functional tethered agoni ...

CCC(=O)OCC(=O)[C@@]1(OC(=O)CC)[C@@H](C)C[C@H]2[C@@H]3CCC4=CC(=O)C=C[C@]4(C)[C@@]3(Cl)[C@@H](O)C[C@@]21C [beclomethasone dipropionate]
Activation of aGPCR: activate
